We go through one molecule from US20110129883A1, “INACTIVATION OF GENES OF THE MEP PATHWAY” (BIOAGENCY AG, priority 2001, published 2011).

For this assay, the system named is E. coli transformed with the synthetic operon. In kind it is cell-based.

With `O=CN(O)CCCP(=O)(O)O` [fosmidomycin], the “bacterial growth under fosmidomycin” value is “at a reduced rate and died”.
